The values below come from ChEMBL document CHEMBL5465560, “Selectivity Literature for EUbOPEN Chemogenomic Library” (2024).

Assay [1] has as its target Serine/threonine-protein kinase pim-3 (Homo sapiens) (UniProt Q86V86). Nature of the assay: Selectivity interaction (KinomeScan (DiscoverX)) EUB0001619a PIM3. The settings on record: at 1 µM.
In assay [2] the target is Dual specificity protein kinase CLK2 (Homo sapiens, UniProt P49760). Nature of the assay: Selectivity interaction (SelectScreen profiling (Invitrogen)) EUB0000607a CLK2. The conditions noted are these: at 2 µM.
Assay [3] has as its target T1, Serine/threonine-protein kinase BRSK2 (Homo sapiens) (UniProt Q8IWQ3).
T1 sequence (whole entry): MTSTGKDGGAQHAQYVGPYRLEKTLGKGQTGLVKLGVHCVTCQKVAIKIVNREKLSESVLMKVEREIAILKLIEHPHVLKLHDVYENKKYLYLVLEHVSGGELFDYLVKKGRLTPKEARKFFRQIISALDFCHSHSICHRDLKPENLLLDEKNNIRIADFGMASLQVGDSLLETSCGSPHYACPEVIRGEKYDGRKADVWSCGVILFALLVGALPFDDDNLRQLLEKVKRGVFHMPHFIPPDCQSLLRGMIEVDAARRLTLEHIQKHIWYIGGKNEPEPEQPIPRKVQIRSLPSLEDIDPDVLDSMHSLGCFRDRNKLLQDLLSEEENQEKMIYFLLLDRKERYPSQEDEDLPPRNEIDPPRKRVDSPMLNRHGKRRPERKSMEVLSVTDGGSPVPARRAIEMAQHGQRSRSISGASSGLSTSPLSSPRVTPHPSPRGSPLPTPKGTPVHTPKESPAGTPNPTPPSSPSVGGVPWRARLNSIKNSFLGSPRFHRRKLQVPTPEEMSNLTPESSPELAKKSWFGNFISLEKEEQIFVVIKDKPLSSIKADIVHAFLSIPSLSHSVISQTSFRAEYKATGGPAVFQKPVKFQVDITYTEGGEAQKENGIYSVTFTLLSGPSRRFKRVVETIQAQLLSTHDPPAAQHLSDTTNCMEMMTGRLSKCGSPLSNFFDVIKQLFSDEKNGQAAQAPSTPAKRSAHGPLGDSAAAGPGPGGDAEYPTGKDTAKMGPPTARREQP
Briefly: Selectivity interaction (SelectScreen profiling (Invitrogen)) EUB0000607a BRSK2. The settings on record: at 2 µM.

Assay [4] has as its target Serine/threonine-protein kinase PLK2 (Homo sapiens, UniProt Q9NYY3). Nature of the assay: Selectivity interaction (Kinase panel (Invitrogen)) EUB0000639a PLK2. The conditions noted are these: at 200 nM.
In assay [5] the target is T2, Serine/threonine-protein kinase D1 (Homo sapiens) (UniProt Q15139).
T2 sequence (whole entry): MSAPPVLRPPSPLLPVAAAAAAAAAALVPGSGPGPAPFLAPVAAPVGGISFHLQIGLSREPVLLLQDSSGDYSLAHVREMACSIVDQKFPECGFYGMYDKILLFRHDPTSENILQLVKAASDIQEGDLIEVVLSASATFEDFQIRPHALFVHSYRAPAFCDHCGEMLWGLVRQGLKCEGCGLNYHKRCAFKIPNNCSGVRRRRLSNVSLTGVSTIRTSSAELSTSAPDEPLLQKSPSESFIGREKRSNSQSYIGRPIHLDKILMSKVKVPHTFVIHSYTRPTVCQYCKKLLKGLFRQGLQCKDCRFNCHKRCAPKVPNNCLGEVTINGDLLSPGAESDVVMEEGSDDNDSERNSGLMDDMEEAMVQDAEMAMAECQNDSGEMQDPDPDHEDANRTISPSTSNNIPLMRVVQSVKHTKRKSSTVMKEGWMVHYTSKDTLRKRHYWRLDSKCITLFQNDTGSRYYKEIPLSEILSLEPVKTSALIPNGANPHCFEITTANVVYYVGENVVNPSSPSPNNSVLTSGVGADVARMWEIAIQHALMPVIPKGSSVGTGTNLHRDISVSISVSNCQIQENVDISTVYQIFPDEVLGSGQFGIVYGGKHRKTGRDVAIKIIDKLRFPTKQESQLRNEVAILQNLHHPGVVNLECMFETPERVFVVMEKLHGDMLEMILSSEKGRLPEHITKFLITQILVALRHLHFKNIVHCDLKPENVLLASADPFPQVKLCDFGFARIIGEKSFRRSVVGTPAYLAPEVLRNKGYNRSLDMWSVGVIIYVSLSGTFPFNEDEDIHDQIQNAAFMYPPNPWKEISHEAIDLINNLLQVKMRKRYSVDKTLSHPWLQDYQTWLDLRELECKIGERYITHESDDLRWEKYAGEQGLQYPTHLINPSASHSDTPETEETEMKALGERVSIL
Briefly: Selectivity interaction (KinomeScan (DiscoverX)) EUB0000045b PRKD1.

The target in assay [6] is T3, Mitogen-activated protein kinase kinase kinase 13 (Homo sapiens) (UniProt O43283).
T3 sequence (whole entry): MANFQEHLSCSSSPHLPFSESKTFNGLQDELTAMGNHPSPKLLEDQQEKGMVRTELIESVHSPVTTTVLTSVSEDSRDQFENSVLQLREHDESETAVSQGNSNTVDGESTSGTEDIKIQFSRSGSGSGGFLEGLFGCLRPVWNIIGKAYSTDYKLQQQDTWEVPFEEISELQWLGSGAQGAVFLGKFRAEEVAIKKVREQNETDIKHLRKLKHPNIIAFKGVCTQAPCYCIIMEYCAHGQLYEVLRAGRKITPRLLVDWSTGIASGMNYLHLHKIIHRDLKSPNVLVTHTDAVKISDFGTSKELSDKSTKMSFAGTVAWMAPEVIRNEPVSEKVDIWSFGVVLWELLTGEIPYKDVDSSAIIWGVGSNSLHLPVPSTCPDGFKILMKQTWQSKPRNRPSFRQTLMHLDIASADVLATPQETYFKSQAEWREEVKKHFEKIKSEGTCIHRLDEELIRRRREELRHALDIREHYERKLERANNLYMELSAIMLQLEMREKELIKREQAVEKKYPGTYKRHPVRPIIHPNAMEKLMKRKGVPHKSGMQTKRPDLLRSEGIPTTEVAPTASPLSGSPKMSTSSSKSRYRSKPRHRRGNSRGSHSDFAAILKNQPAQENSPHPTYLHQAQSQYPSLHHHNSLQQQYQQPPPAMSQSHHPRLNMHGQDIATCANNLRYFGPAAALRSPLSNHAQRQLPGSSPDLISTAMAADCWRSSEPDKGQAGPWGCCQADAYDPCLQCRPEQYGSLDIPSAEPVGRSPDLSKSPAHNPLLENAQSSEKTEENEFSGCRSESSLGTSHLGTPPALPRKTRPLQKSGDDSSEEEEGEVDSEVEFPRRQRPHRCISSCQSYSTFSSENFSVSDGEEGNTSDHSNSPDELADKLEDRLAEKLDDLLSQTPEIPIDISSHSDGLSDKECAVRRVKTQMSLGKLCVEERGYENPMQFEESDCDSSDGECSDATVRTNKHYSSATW
Nature of the assay: Selectivity interaction (KinomeScan (DiscoverX)) EUB0000229b MAP3K13. The settings on record: at 10 µM.

Dual specificity protein kinase CLK2, sequence (P49760 whole entry, looked up): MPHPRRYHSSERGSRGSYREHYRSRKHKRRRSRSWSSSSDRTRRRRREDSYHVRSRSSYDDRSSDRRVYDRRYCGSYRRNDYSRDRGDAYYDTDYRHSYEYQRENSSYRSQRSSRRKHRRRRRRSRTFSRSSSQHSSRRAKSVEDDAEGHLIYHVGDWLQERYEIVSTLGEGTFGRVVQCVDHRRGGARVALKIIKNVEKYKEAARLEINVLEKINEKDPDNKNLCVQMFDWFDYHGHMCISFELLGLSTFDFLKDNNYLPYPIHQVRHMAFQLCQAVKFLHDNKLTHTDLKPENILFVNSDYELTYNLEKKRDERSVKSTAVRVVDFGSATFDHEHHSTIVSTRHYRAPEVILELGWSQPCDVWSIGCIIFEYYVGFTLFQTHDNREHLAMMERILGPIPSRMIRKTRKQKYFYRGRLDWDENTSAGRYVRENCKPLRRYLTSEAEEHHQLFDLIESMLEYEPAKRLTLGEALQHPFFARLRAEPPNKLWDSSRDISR
Serine/threonine-protein kinase PLK2, sequence (Q9NYY3 whole entry, looked up): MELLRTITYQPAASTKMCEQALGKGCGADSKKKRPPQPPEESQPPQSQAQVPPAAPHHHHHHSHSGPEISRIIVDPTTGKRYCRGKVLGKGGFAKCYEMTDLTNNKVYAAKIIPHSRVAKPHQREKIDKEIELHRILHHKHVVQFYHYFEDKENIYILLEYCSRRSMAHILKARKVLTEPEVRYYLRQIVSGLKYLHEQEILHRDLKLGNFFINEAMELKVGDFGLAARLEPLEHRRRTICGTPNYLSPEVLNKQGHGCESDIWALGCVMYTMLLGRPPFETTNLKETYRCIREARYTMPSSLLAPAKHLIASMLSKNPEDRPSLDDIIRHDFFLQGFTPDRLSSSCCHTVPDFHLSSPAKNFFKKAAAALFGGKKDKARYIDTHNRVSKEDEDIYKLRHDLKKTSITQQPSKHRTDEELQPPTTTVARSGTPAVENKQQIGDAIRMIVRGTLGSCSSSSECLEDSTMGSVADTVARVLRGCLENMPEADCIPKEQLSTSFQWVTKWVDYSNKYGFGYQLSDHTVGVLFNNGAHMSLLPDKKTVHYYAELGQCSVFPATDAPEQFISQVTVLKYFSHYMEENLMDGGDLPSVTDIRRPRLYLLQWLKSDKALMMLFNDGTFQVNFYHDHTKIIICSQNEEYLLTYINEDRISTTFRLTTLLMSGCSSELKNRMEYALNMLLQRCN

With `N#Cc1cccc(-c2c[nH]c3ncnc(N4CCOCC4)c23)c1`, the % of control in assay [1] stood at 100%.

Take `CNC(=O)Nc1ccc(-c2nc(N3CC4CCC(C3)O4)c3cnn(C4CCC5(CC4)OCCO5)c3n2)cc1`: the values for the % of inhibition in assay [2] and in assay [3] were 0% and 1%, respectively.

With `CC[C@@H]1[C@H](F)C(=O)N[C@@H]1COc1nccc2cc(C(N)=O)c(OC)cc12` [ZIMLOVISERTIB], the % of inhibition in assay [4] is 5.58%.

With `C=CC(=O)Nc1cc(-n2c(=O)ccc3cnc4ccc(-c5ccc(NS(C)(=O)=O)cc5)cc4c32)ccc1C`, the % of control in assay [5] (at 1 µM) came out at 100%; in assay [5] (at 10 µM), 84%.

`COc1cc(N(C)c2ccnc3ccc(C(F)(F)F)cc23)cc(OC)c1OC` had a % binding in assay [6] of 100%.
